Experimental data published in US20070082916A1, “Fungicidal mixtures for controlling rice pathogens” (BASF AKTIENGESEELSCHAFT, priority 2003, published 2007).

System: Corticium sasakii
Experiment: Activity against sheath blight on rice caused by Corticium sasakii (protective spray on potted rice plants)
Format: in vivo
Conditions: individual active compound, rice cultivar Tai-Nong 67, evaluated after 11 days, untreated control 90% infection
Method: 1% by weight of the emulsifier Uniperol® EL (wetting agent having emulsifying and dispersing action based on ethoxylated alkylphenols) was added to this solution, and the solution was diluted with water to the desired concentration.
Use example—Activity against sheath blight on rice caused by Corticium sasakii
The next day, oat grains infected with Corticium sasakii were placed into the pots (in each case 5 grains per pot). The plants were then placed in a chamber at 26° C. and maximum atmospheric humidity.
Evaluation is carried out by determining the infected leaf areas in percent. These percentages were converted into efficacies.
The efficacy (E) is calculated as follows using Abbot's formula: E=(1−α/β)·100 • α corresponds to the fungicidal infection of the treated plants in % and • β corresponds to the fungicidal infection of the untreated (control) plants in %
An efficacy of 0 means that the infection level of the treated plants corresponds to that of the untreated control plants; an efficacy of 100 means that the treated plants are not infected.

Compound | Efficacy in % of the untreated control (1 ppm in the spray liquor) | Efficacy in % of the untreated control (16 ppm in the spray liquor) | Efficacy in % of the untreated control (4 ppm in the spray liquor)
zinc ammoniate-ethylenebis(dithiocarbamate) [II.3] | 0% | 22% | 
CN(C)C(=S)SSC(=S)N(C)C [II.5, bis(dimethylthiocarbamoyl)disulfide] | 0% | 0% | 
CC(Nc1c(-c2c(F)cc(F)cc2F)c(Cl)nc2ncnn12)C(F)(F)F (centres unmarked) [B] |  |  | 67%
CC1CCN(c2c(-c3c(F)cc(F)cc3F)c(Cl)nc3ncnn23)CC1 [I, 5-chloro-7-(4-methylpiperidin-1-yl)-6-(2,4,6-trifluorophenyl)-[1,2,4]tri-azolo[1,5-a]pyrimidine] |  |  | 33%
CC1CCN(c2c(-c3c(F)cccc3Cl)c(Cl)nc3ncnn23)CC1 [A] |  |  | 0%
manganese-ethylenebis(dithiocarbamate)zinc complex [II.1] | 0% | 11% | 
manganese-ethylenebis(dithiocarbamate) [II.2] | 0% | 11% | 
